The Ki is a dissociation constant, usually derived from enzyme kinetics or from competition with a known ligand. Low readings indicate higher affinity, high ones lower affinity.

Data on three compounds can be found in US5712269A, “M2 receptor ligand for the treatment of neurological disorders” (Pharmaceutical Discovery Corporation, priority 1995, dated 1998).

The nature of data set [1]: partition coefficient between 1-octanol and 0.1M phosphate. The class given is physicochemical. Conditions: 1-octanol / 0.1M phosphate.
Data set [2] concerns the target T1, M2 receptors (Rattus norvegicus, UniProt P10980).
T1 construct: from tissue; host or cells: rat brain
T1 sequence (P10980 1-466): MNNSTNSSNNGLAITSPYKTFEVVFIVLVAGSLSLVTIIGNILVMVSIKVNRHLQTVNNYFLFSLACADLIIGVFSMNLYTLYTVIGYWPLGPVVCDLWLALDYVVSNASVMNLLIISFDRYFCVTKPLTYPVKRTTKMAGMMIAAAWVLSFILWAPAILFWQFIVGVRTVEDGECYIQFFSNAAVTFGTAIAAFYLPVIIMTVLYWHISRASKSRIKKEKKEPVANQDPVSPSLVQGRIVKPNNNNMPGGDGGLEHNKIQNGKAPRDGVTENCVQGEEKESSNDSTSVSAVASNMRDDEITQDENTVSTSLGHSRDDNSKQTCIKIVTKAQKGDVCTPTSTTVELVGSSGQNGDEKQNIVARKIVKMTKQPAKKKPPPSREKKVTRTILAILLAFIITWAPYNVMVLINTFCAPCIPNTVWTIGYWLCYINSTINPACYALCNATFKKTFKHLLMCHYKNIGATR
Nature of the data set: inhibition of [^3 H]AF-DX-384 binding to M2 receptors in the rat brain. The text has this:
FIG. 5 is a graph of the inhibition of [^3 H]AF-DX-384 binding to M2 receptors in the rat brain by PDC008.004, determined as % specific [^3 H]AFDX 384 binding versus log [PDC008.004] in nM.

In data set [3] the test system is mice. Nature of the data set: Watermaze behavioral studies. It counts as in vivo, mouse (male C57 BL/6). Conditions: 10 mg/kg intraperitoneally. The text has this: The following procedures are standard techniques routinely used by those skilled in the art (Morris, R. G. M., 1981)
Male C57 BL/6 mice, 30 g body weight. Minimum 50 animals. Obtainable from The Jackson Laboratories, Bar Harbor, Rt. 3, Me. 04609.
Circular water tank made of sturdy (10 mm thick, minimum) black (or very dark, opaque) lucite or other plastic. Diameter of the tank: 1 meter; Wall height: 50 cm. The tank must have a valve connected to a large diameter (min 1.5 cm inner) water filling/draining rubber hose (min. length 10 ft).
Two targets, one made of the same plastic as the water tank (the "black target"), and one made of translucent variety. Base made of heavy lucite (1 inch thick) shaped as a square with 10 inch sides. Height between the upper surface of the base and the lower surface of the target platform: 20 cm. Target platform support: 20 cm tall, circular rod (1 inch diam.). Circular target platform, 8 cm across, made of 0.5 cm thick plastic and covered with a non-skid material (surgical tape can be used) painted either black or white (depending on the target).
Regimen "A" consists of concurrent injections of either drug(s) or saline and swimming. Injections administered in a sequence: injection--24h--swim--2h--injection--24h--swim--2h--injection . . . etc., until a stable "time to target" plateau among the controls will be reached. […]

The test system of data set [4] is mice. Nature of the data set: behavioral observation after intraperitoneal injection. The class given is in vivo, mouse.
Data set [5] has as its system muscarinic cholinergic receptor. Conditions: background statement; cited from earlier work.

Entries after “also recorded” stand apart in the source; their conditions may differ.

Consider `CCN(CC)CCN(CC(=O)N1c2ccccc2C(=O)Nc2cccnc21)CC1CCCCC1.Cl` [Compound 6, 11-[[[2-(Diethylamino)ethyl]cyclohexylmethylamino]-acetyl]-5,11-dihydro-6H-pyrido [2,3-b][1,4]-benzodiazepin-6-one hydrochloride salt], for which the “partition coefficient (log P)” value in data set [1] came out at 0.16.

In turn, `CCN(CC)CCN(CC(=O)N1c2ccccc2C(=O)Nc2cccnc21)CC1CCCCC1` [PDC 008.004, 11-[[[2-(diethylamino)ethyl]cyclohexylmethylamino]-acetyl]-5,11-dihydro-6H-pyrido [2,3-b][1,4]-benzodiazepin-6-one] had a Ki in data set [2] of 422 nM. For the same compound, the “movement pattern change in watermaze” value in data set [3] (10 treated vs 10 control mice) was “substantial and significant (P>0.01) movement pattern change; also recorded: rapid shift from thygmotactic (wall-hugging) to center crossing and center crossing-goal oriented behavior”. Further, the “time required to find a hidden target (target latency) after the fourth trial” value in data set [3] (daily injections, mice) is “substantial statistically significant (P<0.05) decrease”. The “partition coefficient (log P)” value in data set [1] is given as 0.78±0.18. Also, in data set [4] (10 mg/kg, intraperitoneally, 24 hour period prior to behavioral testing), the “motor activity after a single injection” value is “increased motor activity”. Moreover, the “signs observed in injected animals” value in data set [4] (100 mg/kg intraperitoneally) is “presence of dyskinesia, ataxia, and absence of flaccid paralysis”. Further, in data set [4] (inferred from very swift central cholinergic mediated events, intraperitoneal), the “penetration into the intracerebral space” value is on record as “rapid penetration into the intracerebral space”.

With `CN1[C@@H]2C[C@@H](OC(=O)[C@H](CO)c3ccccc3)C[C@H]1[C@@H]1O[C@@H]12` [scopolamine], in data set [5], the “effect on memory function” value was “impair memory function”.
